According to the supplement of paper PMC4862054:

Legend:
Experiment in all cases: normalised response (% of control), CellTiter-Glo; higher = more viable cells (100 = DMSO, 0 = benzethonium chloride kill control)
Conditions in all cases: incubation time: 72 h
HCC1937 = test system: HCC1937
How it was run: (§1)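 The table gives the normalised signal for a single concentration in each entry. Breast cancer cell lines were seeded (20 µl suspension) into 384-well plates holding compound at 5 concentrations in 10-fold steps over a compound-specific 10,000-fold range and incubated 72 h, then read for CellTox Green fluorescence (485/520 nm) and CellTiter-Glo luminescence. Normalisation on each plate used 0.1 % DMSO (100) and a positive kill control (0).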

MDA-MB-453 = test system: MDA-MB-453
How it was run: as §1

HDQ-P1 = test system: HDQ-P1
How it was run: as §1

CAL-51 = test system: CAL-51
How it was run: as §1

DU-4475 = test system: DU-4475
How it was run: as §1

MDA-MB-231 = test system: MDA-MB-231
How it was run: as §1

HCC1143 = test system: HCC1143
How it was run: as §1

Hs578T = test system: Hs578T
How it was run: as §1

SK-BR-3 = test system: SK-BR-3
How it was run: as §1

MDA-MB-468 = test system: MDA-MB-468
How it was run: as §1

BT-549 = test system: BT-549
How it was run: as §1

CAL-148 = test system: CAL-148
How it was run: as §1

CAL-85-1 = test system: CAL-85-1
How it was run: as §1

BT-474 = test system: BT-474
How it was run: as §1

MDA-MB-436 = test system: MDA-MB-436
How it was run: as §1

CAL-120 = test system: CAL-120
How it was run: as §1

MCF-10A = test system: MCF-10A
How it was run: as §1

HCC1599 = test system: HCC1599
How it was run: as §1

MFM-223 = test system: MFM-223
How it was run: as §1

Compound	normalised response (HCC1937) [%]	normalised response (MDA-MB-453) [%]	normalised response (HDQ-P1) [%]	normalised response (CAL-51) [%]	normalised response (DU-4475) [%]	normalised response (MDA-MB-231) [%]	normalised response (HCC1143) [%]	normalised response (Hs578T) [%]	normalised response (SK-BR-3) [%]	normalised response (MDA-MB-468) [%]	normalised response (BT-549) [%]	normalised response (CAL-148) [%]	normalised response (CAL-85-1) [%]	normalised response (BT-474) [%]	normalised response (MDA-MB-436) [%]	normalised response (CAL-120) [%]	normalised response (MCF-10A) [%]	normalised response (HCC1599) [%]	normalised response (MFM-223) [%]
CC(C)(C)Cn1c(N)nc2ccc(-c3[nH]c(C(C)(C)C)nc3-c3ccc(F)cc3)nc21 (1 nM)	105	110	101	117	98.1	99.3	104	95.4	104	102	103	110	99.9	103	101	98.8	109	104	106
CC(C)(C)Cn1c(N)nc2ccc(-c3[nH]c(C(C)(C)C)nc3-c3ccc(F)cc3)nc21 (10 nM)	95.1	104	95.6	97.5	105	99.7	104	106	–	102	95.9	110	97.8	103	104	97.8	106	95.5	105
Cn1cc(C[C@@H](N)C(=O)O)c2ccccc21 [1-methyl-D-tryptophan] (0.5 nM)	97.6	99.4	105	113	101	95.2	96.5	99.3	93	98	101	87.4	94.3	96.1	103	95.6	97.1	102	92.8
Cn1cc(C[C@@H](N)C(=O)O)c2ccccc21 [1-methyl-D-tryptophan] (5 nM)	98.5	90.1	104	94.2	95.8	96.8	102	93.2	99.8	98.3	95.7	88.9	91.3	100	107	95.1	95.2	107	94.2
CC[C@H](CC#N)OC(=O)N[C@@H](C)c1cccc(NC(=O)Nc2ccc(-c3cnco3)c(OC)c2)c1 [AVN944] (1 nM)	103	99.6	99.4	112	97.9	96.1	93.2	97.8	95.7	97.2	98.5	99.8	97	89.2	91.1	96.7	99.1	90.3	93.5
CC[C@H](CC#N)OC(=O)N[C@@H](C)c1cccc(NC(=O)Nc2ccc(-c3cnco3)c(OC)c2)c1 [AVN944] (10 nM)	96	82.7	100	122	97.5	101	97.3	96.4	–	111	91.5	99.3	95.8	89.4	97.6	95	99.7	88.6	96.2
Cc1c(N)nc([C@H](CC(N)=O)NC[C@H](N)C(N)=O)nc1C(=O)N[C@H](C(=O)N[C@H](C)[C@@H](O)[C@H](C)C(=O)N[C@H](C(=O)NCCc1nc(-c2nc(C(=O)NCCC[S+](C)C)cs2)cs1)[C@@H](C)O)[C@@H](OC1OC(CO)C(O)C(O)C1OC1OC(CO)C(O)C(OC(N)=O)C1O)c1cnc[nH]1 (some centres not stated) [Bleomycin] (10 nM)	93.3	104	97.6	97.5	98.1	96.3	98.9	99.8	106	98	87.6	85	96.1	95.7	94.2	97.3	100	97.7	101
Cc1cc2c(F)c(Oc3ncnn4cc(OC[C@@H](C)O)c(C)c34)ccc2[nH]1 [Brivanib] (1 nM)	102	107	97.8	74.5	111	104	104	103	–	108	95.2	111	102	107	102	98.9	107	103	110
CCCCCOC(=O)Nc1nc(=O)n([C@@H]2O[C@H](C)[C@@H](O)[C@H]2O)cc1F [Capecitabine] (10 nM)	98.8	107	99.6	99.6	100	96.4	96.9	98.1	99.5	91.9	93.2	110	97.4	99.6	98.7	102	105	86.9	103
CC(C)C[C@H](NC(=O)[C@H](CCc1ccccc1)NC(=O)CN1CCOCC1)C(=O)N[C@@H](Cc1ccccc1)C(=O)N[C@@H](CC(C)C)C(=O)[C@@]1(C)CO1 [Carfilzomib] (1 nM)	101	101	108	87.7	108	105	106	100	107	106	99.5	108	105	115	109	105	115	108	112
